The results in this text go back to US9422240B2, “Partially saturated nitrogen-containing heterocyclic compound” (TAISHO PHARMACEUTICAL CO., LTD, priority 2012, dated 2016).

Structures are written as SMILES. Counter-ions that a name gives are not always drawn. Like-named read-outs stand apart in the source and are kept apart here.

This assay addresses human PHD2 (Homo sapiens (Human), UniProt Q9GZT9). In words: Test 2: human PHD2 inhibitory activity, fluorescence polarization assay of HIF-1α peptide proline hydroxylation. It is filed as biochemical. The following applies: read-out: Percent inhibition (% at 1 μM). The method in brief:
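A 19-mer HIF-1α peptide served as substrate, with the reaction started by 40 ng/well human PHD2 (cell lysate of NM_022051-transfected cells) and run 20 min at 30° C. before EDTA stop. Hydroxylated product bound anti-HIF-OH antibody, read by fluorescence polarization versus no-compound control.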

[1] abbreviates: test compound's concentration 1 μM, Test 2, fluorescence polarization assay.

human PHD2, sequence (Q9GZT9 whole entry): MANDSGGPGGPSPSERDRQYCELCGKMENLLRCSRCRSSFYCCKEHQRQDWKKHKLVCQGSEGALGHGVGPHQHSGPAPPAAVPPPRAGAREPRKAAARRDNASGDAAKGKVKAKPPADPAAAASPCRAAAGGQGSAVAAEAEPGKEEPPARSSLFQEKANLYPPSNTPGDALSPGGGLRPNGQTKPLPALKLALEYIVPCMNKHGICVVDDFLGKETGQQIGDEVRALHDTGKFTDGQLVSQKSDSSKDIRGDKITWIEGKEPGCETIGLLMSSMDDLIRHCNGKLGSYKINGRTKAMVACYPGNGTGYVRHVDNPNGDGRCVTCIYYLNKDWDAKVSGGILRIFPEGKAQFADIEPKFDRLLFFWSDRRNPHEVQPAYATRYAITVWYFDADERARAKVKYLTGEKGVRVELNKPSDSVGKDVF

As a reminder, the inhibition is the percentage by which the read-out fell short of the control. For `COc1ccccc1-c1ccc(CN2CCC(O)=C(C(=O)NCC(=O)O)C2=O)cn1` [Ex. 2-52], the inhibition at 1 µM under setting [1] came out at 95%.
On to `COc1cncc(-c2ccc(CN3CCC(O)=C(C(=O)NCC(=O)O)C3=O)cc2)c1` [Ex. 2-53], for which the inhibition at 1 µM under setting [1] stood at 97%.
For `COc1ccncc1-c1ccc(CN2CCC(O)=C(C(=O)NCC(=O)O)C2=O)cc1` [Ex. 2-54], the inhibition at 1 µM under setting [1] amounted to 87%.
Regarding `NS(=O)(=O)c1ccc(-c2ccc(CN3CCC(O)=C(C(=O)NCC(=O)O)C3=O)cc2)cc1` [Ex. 2-55, N-({4-Hydroxy-2-oxo-1-[(4′-sulfamoyl-4-biphenylyl)methyl]-1,2,5,6-tetrahydro-3-pyridinyl}carbonyl)glycine], the inhibition at 1 µM under setting [1] turned out to be 97%.
Turning to `CS(=O)(=O)c1ccc(-c2ccc(CN3CCC(O)=C(C(=O)NCC(=O)O)C3=O)cc2)cn1` [Ex. 2-56], the inhibition at 1 µM under setting [1] stood at 92%.
Regarding `O=C(O)CNC(=O)C1=C(O)CCN(Cc2ccc(-c3ccc(S(=O)(=O)NCCO)cc3)cc2)C1=O` [Ex. 2-57], the inhibition at 1 µM under setting [1] is 94%.
As to `O=C(O)CNC(=O)C1=C(O)CCN(Cc2ccc(-c3ccc(C(=O)O)nc3)cc2)C1=O` [Ex. 2-58], the inhibition at 1 µM under setting [1] amounted to 92%.
Turning to `Nc1ccc(-c2ccc(CN3CCC(O)=C(C(=O)NCC(=O)O)C3=O)cc2)cn1` [Ex. 2-59], the inhibition at 1 µM under setting [1] worked out at 97%.
Take `O=C(O)CNC(=O)C1=C(O)CCN(Cc2ccc(-c3ccc(O)nc3)cc2)C1=O` [Ex. 2-60]: the inhibition at 1 µM under setting [1] turned out to be 96%.
Turning to `Nc1ncc(-c2ccc(CN3CCC(O)=C(C(=O)NCC(=O)O)C3=O)cc2)cn1` [Ex. 2-61], the inhibition at 1 µM under setting [1] is 92%.
For `O=C(O)CNC(=O)C1=C(O)CCN(Cc2ccc(O)cc2)C1=O` [Ex. 4-3, N-{[4-Hydroxy-1-(4-hydroxybenzyl)-2-oxo-1,2,5,6-tetrahydro-3-pyridinyl]carbonyl}glycine], the inhibition at 1 µM under setting [1] came out at 72%.
On to `O=C(O)CNC(=O)C1=C(O)C2(CCCC2)N(Cc2ccc(-c3ccccc3)cc2)C1=O` [Ex. 6-1, N-{[1-(4-Biphenylylmethyl)-4-hydroxy-2-oxo-1-azaspiro[4.4]non-3-en-3-yl]carbonyl}glycine], for which the inhibition at 1 µM under setting [1] is 91%.
Regarding `C[C@H]1CC(O)=C(C(=O)NCC(=O)O)C(=O)N1Cc1ccc(OCC2CC2)cc1` [Ex. 6-2, N-({(6S)-1-[4-(Cyclopropylmethoxy)benzyl]-4-hydroxy-6-methyl-2-oxo-1,2,5,6-tetrahydro-3-pyridinyl}carbonyl)glycine sodium salt], the inhibition at 1 µM is 77%.
As to `O=C(O)CNC(=O)C1=C(O)C2(CCC2)N(Cc2ccc(-c3ccccc3)cc2)C1=O` [Ex. 6-3], the inhibition at 1 µM under setting [1] amounted to 96%.
Still for that read-out and setting: in the case of `CC1C(O)=C(C(=O)NCCC(=O)O)C(=O)N1Cc1ccc(-c2ccccc2)cc1` (centres unmarked) [Ex. 6-4] it was 10%; in that of `CC1C(O)=C(C(=O)NCC(=O)O)C(=O)N1Cc1ccc(Oc2ccc(C(F)(F)F)cn2)cc1` (centres unmarked) [Ex. 6-5], 97%.
The same measure, in the same setting: next, `CC1(C)C(O)=C(C(=O)NCC(=O)O)C(=O)N1Cc1ccc(Oc2ccc(C(F)(F)F)cn2)cc1` [Ex. 6-6]: 87%; `O=C(O)CNC(=O)C1=C(O)CN(Cc2ccc(OCC3CC3)cc2)C1=O` [Ex. 6-7]: 86%.
On to `CC1C(O)=C(C(=O)NCC(=O)O)C(=O)N1Cc1ccc(OCC2CC2)cc1` (centres unmarked) [Ex. 6-8], for which the inhibition at 1 µM under setting [1] stood at 83%.
Turning to `CC1(C)C(O)=C(C(=O)NCC(=O)O)C(=O)N1Cc1ccc(OCC2CC2)cc1` [Ex. 6-9], the inhibition at 1 µM under setting [1] came out at 85%.
Regarding `O=C(O)CNC(=O)C1=C(O)C[C@H](c2ccccc2)N(Cc2ccc(OCC3CC3)cc2)C1=O` [Ex. 6-10], the inhibition at 1 µM under setting [1] came out at 76%.
The same measure, in the same setting: in the case of `O=C(O)CNC(=O)C1=C(O)C[C@@H](c2ccccc2)N(Cc2ccc(OCC3CC3)cc2)C1=O` [Ex. 6-11] it was 73%; in that of `CC1CC(O)=C(C(=O)NCC(=O)O)C(=O)N1Cc1ccc(OCC2CC2)cc1` (centres unmarked) [Ex. 6-12], 67%.
The same measure, in the same setting: next, `O=C(O)CNC(=O)C1=C(O)CC2(CCOCC2)N(Cc2ccc(OCC3CC3)cc2)C1=O` [Ex. 6-13]: 81%; `O=C(O)CNC(=O)C1=C(O)CC2(COC2)N(Cc2ccc(OCC3CC3)cc2)C1=O` [Ex. 6-14]: 80%; `NC(=O)[C@H]1CC(O)=C(C(=O)NCC(=O)O)C(=O)N1Cc1ccc(OCC2CC2)cc1` [Ex. 6-15]: 55%.
As to `NC(=O)[C@@H]1CC(O)=C(C(=O)NCC(=O)O)C(=O)N1Cc1ccc(OCC2CC2)cc1` [Ex. 6-16], the inhibition at 1 µM under setting [1] is 26%.
With `CC1(C)CC(O)=C(C(=O)NCC(=O)O)C(=O)N1CC1CCN(c2ncccn2)CC1` [Ex. 6-17], the inhibition at 1 µM under setting [1] stood at 32%.
For `CC1(C)CC(O)=C(C(=O)NCC(=O)O)C(=O)N1CC1CCN(C(=O)CC2CC2)CC1` [Ex. 6-18], under setting [1], the inhibition at 1 µM was determined as 24%.
Consider `O=C(O)CNC(=O)C1=C(O)C[C@H](c2cccnc2)N(Cc2ccc(OCC3CC3)cc2)C1=O` [Ex. 6-19], for which, under setting [1], the inhibition at 1 µM is 72%.
On to `O=C(O)CNC(=O)C1=C(O)C[C@@H](c2cccnc2)N(Cc2ccc(OCC3CC3)cc2)C1=O` [Ex. 6-20], for which the inhibition at 1 µM under setting [1] was 84%.
Still for that read-out and setting: next, `O=C(O)CNC(=O)C1=C(O)C[C@@H](Cc2ccccc2)N(Cc2ccc(OCC3CC3)cc2)C1=O` [Ex. 6-21]: 85%; `O=C(O)CNC(=O)C1=C(O)C[C@H](Cc2ccccc2)N(Cc2ccc(OCC3CC3)cc2)C1=O` [Ex. 6-22]: 88%.
Same read-out and setting: in the case of `O=C(O)CNC(=O)C1=C(O)C2(CCCCC2)CN(Cc2ccc(OCC3CC3)cc2)C1=O` [Ex. 6-23] it was 85%; in that of `O=C(O)CNC(=O)C1=C(O)CC2(CCCCC2)N(Cc2ccc(OCC3CC3)cc2)C1=O` [Ex. 6-24], 78%; in that of `CC1(C)CC(O)=C(C(=O)NCC(=O)O)C(=O)N1Cc1ccc(OCC(N)=O)cc1` [Ex. 6-25], 49%.
For the compound `CC1(C)CC(O)=C(C(=O)NCC(=O)O)C(=O)N1CC1CCN(Cc2ccccc2)CC1` [Ex. 6-26], the inhibition at 1 µM under setting [1] came to 16%.
In the case of `CC(C)[C@H]1CC(O)=C(C(=O)NCC(=O)O)C(=O)N1Cc1ccc(OCC2CC2)cc1` [Ex. 6-27], the inhibition at 1 µM under setting [1] was 51%.
For `CC(C)[C@@H]1CC(O)=C(C(=O)NCC(=O)O)C(=O)N1Cc1ccc(OCC2CC2)cc1` [Ex. 6-28], the inhibition at 1 µM under setting [1] was 42%.
As to `CC1(C)CC(O)=C(C(=O)NCC(=O)O)C(=O)N1Cc1ccc(OCC2CC2)nc1` [Ex. 6-29], under setting [1], the inhibition at 1 µM was found to be 69%.
For the compound `O=C(O)CNC(=O)C1=C(O)C[C@H](CO)N(Cc2ccc(OCC3CC3)cc2)C1=O` [Ex. 6-30], under setting [1], the inhibition at 1 µM was 45%.
In the case of `O=C(O)CNC(=O)C1=C(O)C[C@@H](CO)N(Cc2ccc(OCC3CC3)cc2)C1=O` [Ex. 6-31], under setting [1], the inhibition at 1 µM amounted to 44%.
As for `CC1(C)CC(O)=C(C(=O)NCC(=O)O)C(=O)N1CC1CN(c2ncccn2)C1` [Ex. 6-32], the inhibition at 1 µM under setting [1] was found to be 4%.
Still for that read-out and setting: in the case of `CC1(C)CC(O)=C(C(=O)NCC(=O)O)C(=O)N1Cc1ccc(OCC2CC2)nn1` [Ex. 6-33] it was 68%.
For the compound `COC[C@@H]1CC(O)=C(C(=O)NCC(=O)O)C(=O)N1Cc1ccc(OCC2CC2)cc1` [Ex. 6-34], under setting [1], the inhibition at 1 µM is 70%.
For the compound `CC1(C)CC(O)=C(C(=O)NCC(=O)O)C(=O)N1Cc1cnc(OCC2CC2)cn1` [Ex. 6-35], the inhibition at 1 µM under setting [1] stood at 60%.
Same read-out and setting: in the case of `CN(C)C[C@@H]1CC(O)=C(C(=O)NCC(=O)O)C(=O)N1Cc1ccc(OCC2CC2)cc1` [Ex. 6-36] it was 30%.
